# Test results taken from ChEMBL document CHEMBL1152113, “The prooligonucleotide approach. III: Synthesis and bioreversibility of a chimeric phosphorodithioate prooligonucleotide” (Bioorg Med Chem Lett, 1996).
# Legend:
# [1] = Half life period was reported in porcine liver esterase medium; type: ADME, Sus scrofa; conditions: pig
# [2] = Half life period was reported in total cell extract medium; type: ADME
# [3] = Half life period was reported in a culture medium (RPMI 1640 + 10% FCS); type: ADME
# [4] = Half life period was reported in gastric juice; type: ADME, tissue-based
# [5] = Half life period was reported in gastric juice, stable; No degradation observed up to 30 days; type: ADME, tissue-based; conditions: simulated gi fluid, 720 h
# [6] = Half life period was reported in gastric juice; stable No degradation observed up to 30 days; type: ADME, tissue-based; conditions: simulated gi fluid, 720 h
compound,measurement,setting,value
CC(=O)SCCSP(=S)(OC[C@H]1O[C@@H](n2cc(C)c(=O)[nH]c2=O)C[C@@H]1O)O[C@H]1C[C@H](n2cc(C)c(=O)[nH]c2=O)O[C@@H]1CO (some centres undefined),half-life,[1],< 2 min
same,half-life,[2],< 5 min
same,half-life,[3],360 min
same,half-life,[4],7 days
Cc1cn([C@H]2C[C@H](OP(=S)(OC[C@H]3O[C@@H](n4cc(C)c(=O)[nH]c4=O)C[C@@H]3O)SCCSC(=O)c3ccccc3)[C@@H](CO)O2)c(=O)[nH]c1=O (some centres undefined),half-life,[1],5 min
same,T1/2,[5],No degradation
same,half-life,[2],36 min
same,half-life,[3],2790 min
Cc1cn([C@H]2C[C@H](OP(=S)(OC[C@H]3O[C@@H](n4cc(C)c(=O)[nH]c4=O)C[C@@H]3O)SCCSC(=O)C(C)(C)C)[C@@H](CO)O2)c(=O)[nH]c1=O (some centres undefined),half-life,[1],< 4 min
same,T1/2,[6],No degradation
same,half-life,[2],54 min
same,half-life,[3],2560 min
CCCCCCCCCCCCOC[C@H]1O[C@@H](n2cc(C)c(=O)[nH]c2=O)C[C@@H]1O,half-life,[2],15 min
same,half-life,[3],1920 min
